Legend:
CDK7/Cyclin H/MNAT1 = CDK7/Cyclin H/MNAT1 (Homo sapiens, UniProt P50613); experiment: Inhibition of CDK7/Cyclin H/MNAT1 kinase activity (ADP-Glo); assay type: biochemical; conditions: mean value from several measurements; read-out: IC50 CDK7/Cyclin H/MNAT
Procedure, shortened: (§1)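 Kinase preincubated with compound (11 points, 4-fold steps from 50 μM) for 10 minutes at 25° C. in kinase buffer A with DTT, then reacted 40-60 minutes at 25° C. with ATP and CDKtide, Histone H1 or PDKtide substrate. ADP formation read by ADP-Glo luminescence; IC50 from four-parameter fit.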

[1] = Passive membrane permeability through PAMPA artificial membrane, pH 7.4; assay type: in vitro ADME; conditions: pH 7.4, 10 μmol, 20 hours at room temperature, mean of multiple measurements, read-out: PAMPA passive permeability Pe
Experimental: Passive membrane permeability of the compounds described in the present invention was determined using the PAMPA (parallel artificial membrane permeability assay) model at pH 7.4.
We used a 96-well plate (Corning® BioCoat® Pre-coated PAMPA Plate System, order no. 353015), composed of acceptor and donor parts with cell membrane-modeling PVDF filter pre-impregnated with a lecithin-phospholipid bilayer. The substance (at a concentration of 10 μmol) in a 0.01 M phosphate buffer with pH 7.4 was introduced into a donor well of the plate, and pure buffer was introduced into an acceptor well; afterwards, the both parts were combined and incubated for 20 hours at room temperature so that the compound was redistributed between the two wells and the membrane. Verapamil (USP, USA, order no. 1711202) and propranolol (MCE LLC, USA, cat. no. HY-B0573/CS-2680) were used as control compounds with high and medium permeability. Samples were analyzed by reversed-phase HPLC with UV detection (Agilent 1260 chromatograph with UV detector) by determining their peak areas in the donor and acceptor wells.
Permeability (Pe, cm/s) and retention factor (R, %) in the lipid bilayer were calculated using the formula:
[formula] [formula] • Co is donor-well concentration of the substance at the initial moment of time t (μM); • CA (t) is acceptor-well concentration of the substance at time t (μM); • Vd is donor-well volume (0.3 ml); • Va is acceptor-well volume (0.15 ml).
[formula] • A is filter area (0.3 cm^2); • t is incubation time (72000 s);

[2] = General cytotoxicity on primary differentiated HepaRG cells (72 h); assay type: cell-based; conditions: human, general toxicity, mean value from several measurements
Procedure, shortened: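 Differentiated HepaRG cells, maintained a week in basal hepatic medium with maintenance/metabolism supplement, were plated at 25×10^3 cells/well overnight. Compounds (200 μM to 0.2 nM) were added for 72 h before viability readout.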

CDK2/Cyclin A = CDK2/Cyclin A (Homo sapiens, UniProt P24941); experiment: Inhibition of CDK2/Cyclin A kinase activity (ADP-Glo); assay type: biochemical; conditions: mean value from several measurements; read-out: IC50 CDK2/Cyclin A
Procedure, shortened: as §1

[3] = system: MDA-MB-468 (triple negative breast cancer); experiment: Antiproliferative assay on MDA-MB-468 cells (AlamarBlue, 96 h); assay type: cell-based; conditions: Homo sapiens, mean value from several measurements
[4] = system: NCl-H82 (small cell lung cancer); experiment: Antiproliferative assay on NCl-H82 cells (AlamarBlue, 120 h); assay type: cell-based; conditions: mean value from several measurements
Experimental: The antiproliferative activity of CDK7 inhibitors according to the present invention was evaluated in a cell test using continuous cell cultures: MDA-MB-468 (triple negative breast cancer, ATCC® HTB-132™) and NCl-H82 (small cell lung cancer, ATCC® HTB-175™) using a viable AlamarBlue dye (Thermo Fisher Scientific Inc, order no. DAL1100). The cells were grown in DMEM (PanEco, order no. C330π) and RPMI-1640 (PanEco, order no. C330π), respectively. The basal growth medium was enriched with L-glutamine at a concentration of 2 mM (PanEco, order no. Φ032) and 10% fetal bovine serum (Gibco, order no. 16140-071). The night before measurement, MDA-MB-468 adherent cells were detached from plastic with a solution of trypsin-EDTA (PanEco, order no. Π039π), the solution was then inactivated by a DMEM complete medium, centrifuged at 1000 RPM (Eppendorf, 5804 R), a suspension of cells was prepared in a DMEM complete medium, introduced into 96-well culture plates (Corning Inc, order no. 3599) at 8×10^3 cells in 100 μl of medium per well. The next day, test compounds were dissolved in DMSO and diluted with a DMEM complete medium to a final concentration ranging from 50 μM to 10 pM. Diluted compounds in a volume of 50 μl were introduced into the plate wells with cells in triplicates (the final concentration of DMSO was no more than 1%) and incubated at 37° C. in an incubator with 5% CO2 for 96 hours. NCl-H82 suspension cell line was prepared on the day of the analysis. 10×10^3 cells in 100 μl of an RPMI-1640 complete medium were added to each well of a 96-well plate. The procedure for sample dilution is as described above. Cells with test compounds were incubated at 37° C. in an incubator with 5% CO2 for 120 hours. Following incubation, […] of AlamarBlue reagent (Thermo Fisher Scientific Inc., order no. DAL1100) was added to the wells, the contents of the plates were stirred in an orbital shaker (Biosan, Latvia), then further incubated for 5.5-6 hours at 37° C. in an incubator with 5% CO2. The number of viable cells was detected using the Infinite M200Pro microplate spectrophotometer (Tecan Group Ltd, Switzerland) by way of measuring a fluorescent signal at an excitation wavelength (λEx) of 540 nm and an emission wavelength (λEm) of 590 nm.
IC50 value was calculated using the Magellan software (Tecan Group Ltd, Switzerland) by approximating experimental points by four-parameter model with the optimization by Levenberg-Marquardt: […]

CDK9/Cyclin K = CDK9/Cyclin K (Homo sapiens, UniProt P50750); experiment: Inhibition of CDK9/Cyclin K kinase activity (ADP-Glo); assay type: biochemical; conditions: mean value from several measurements; read-out: IC50 CDK9/Cyclin K
Procedure, shortened: as §1

Sequence of CDK9/Cyclin K (P50750 whole entry): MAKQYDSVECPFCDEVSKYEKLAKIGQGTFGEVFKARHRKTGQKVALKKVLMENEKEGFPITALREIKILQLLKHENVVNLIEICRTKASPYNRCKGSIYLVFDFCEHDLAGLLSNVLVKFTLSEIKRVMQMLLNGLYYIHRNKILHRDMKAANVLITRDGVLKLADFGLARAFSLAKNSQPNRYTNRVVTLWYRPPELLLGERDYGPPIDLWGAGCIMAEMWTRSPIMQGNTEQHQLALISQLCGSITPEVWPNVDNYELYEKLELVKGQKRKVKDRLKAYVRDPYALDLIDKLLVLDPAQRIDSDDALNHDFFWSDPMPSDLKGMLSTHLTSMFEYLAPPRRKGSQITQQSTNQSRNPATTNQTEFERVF
Sequence of CDK9/Cyclin K (O75909 whole entry partner): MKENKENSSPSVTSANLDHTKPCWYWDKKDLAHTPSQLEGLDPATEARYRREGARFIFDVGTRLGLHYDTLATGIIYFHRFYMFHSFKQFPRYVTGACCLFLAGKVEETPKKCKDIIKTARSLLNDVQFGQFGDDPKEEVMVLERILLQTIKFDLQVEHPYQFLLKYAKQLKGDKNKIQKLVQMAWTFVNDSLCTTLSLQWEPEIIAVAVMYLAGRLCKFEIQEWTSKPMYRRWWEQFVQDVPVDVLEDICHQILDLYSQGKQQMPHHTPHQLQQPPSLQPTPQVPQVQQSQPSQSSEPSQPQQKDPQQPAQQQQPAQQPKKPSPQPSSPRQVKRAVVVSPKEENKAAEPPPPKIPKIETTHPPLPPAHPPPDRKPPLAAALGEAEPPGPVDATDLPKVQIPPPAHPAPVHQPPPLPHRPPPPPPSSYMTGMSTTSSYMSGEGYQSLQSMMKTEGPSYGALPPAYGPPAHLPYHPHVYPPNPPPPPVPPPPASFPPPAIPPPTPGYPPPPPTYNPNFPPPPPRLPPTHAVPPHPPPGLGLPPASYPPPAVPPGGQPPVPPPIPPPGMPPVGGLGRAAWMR
Sequence of CDK7/Cyclin H/MNAT1 (P50613 whole entry): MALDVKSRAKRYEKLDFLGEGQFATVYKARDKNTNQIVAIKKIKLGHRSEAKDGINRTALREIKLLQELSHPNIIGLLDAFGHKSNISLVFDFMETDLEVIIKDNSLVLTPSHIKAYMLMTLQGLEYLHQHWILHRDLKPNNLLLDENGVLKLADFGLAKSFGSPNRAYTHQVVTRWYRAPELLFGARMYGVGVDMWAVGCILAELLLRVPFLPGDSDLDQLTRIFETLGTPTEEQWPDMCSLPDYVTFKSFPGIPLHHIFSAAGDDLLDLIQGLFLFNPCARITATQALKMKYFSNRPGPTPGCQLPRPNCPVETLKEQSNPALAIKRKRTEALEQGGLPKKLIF
Sequence of CDK7/Cyclin H/MNAT1 (P51946 whole entry partner): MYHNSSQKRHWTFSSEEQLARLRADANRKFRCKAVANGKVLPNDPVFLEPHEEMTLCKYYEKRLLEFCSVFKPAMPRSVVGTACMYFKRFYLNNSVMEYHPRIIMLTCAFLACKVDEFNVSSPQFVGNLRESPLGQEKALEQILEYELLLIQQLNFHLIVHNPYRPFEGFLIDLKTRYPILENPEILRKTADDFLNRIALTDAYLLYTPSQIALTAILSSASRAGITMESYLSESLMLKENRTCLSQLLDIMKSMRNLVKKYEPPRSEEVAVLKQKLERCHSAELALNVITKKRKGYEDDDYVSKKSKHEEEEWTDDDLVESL
Sequence of CDK7/Cyclin H/MNAT1 (P51948 whole entry partner): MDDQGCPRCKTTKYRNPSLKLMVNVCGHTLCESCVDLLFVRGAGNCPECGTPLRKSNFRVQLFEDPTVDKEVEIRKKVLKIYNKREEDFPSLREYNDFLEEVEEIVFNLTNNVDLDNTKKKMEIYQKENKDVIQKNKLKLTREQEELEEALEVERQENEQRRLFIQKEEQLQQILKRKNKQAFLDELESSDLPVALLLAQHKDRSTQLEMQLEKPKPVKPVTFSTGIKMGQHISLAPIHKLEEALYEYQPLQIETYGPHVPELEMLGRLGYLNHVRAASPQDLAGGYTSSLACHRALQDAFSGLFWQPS

SMILES | IC50 (CDK7/Cyclin H/MNAT1) | Papp at 20 h, 10 μmol [1] | IC50 (CDK2/Cyclin A) | IC50 [3] | IC50 [4] | IC50 (CDK9/Cyclin K) | CC50 at 72 h [2]
O=C1NCCc2c(-c3nc(N[C@H]4CCCNC4)ncc3C(F)(F)F)c[nH]c21 [CDK7_814, 3-(2-{[(3S)-piperidin-3-yl]amino}-5-(trifluoromethyl)pyrimidin-4-yl)-1H,4H,5H,6H, 7H-pyrrolo[2,3-c]pyridin-7-one] | < 5 nM | < 1 ×10⁻⁶ cm/s | > 200 nM | 10 to 100 nM | 10 to 100 nM | 50 to 200 nM | 500 to 2000 nM
CN(C)C(=O)c1cc(-c2nc(N[C@H]3CCCNC3)ncc2C(F)(F)F)cn1C [CDK7_1017, N,N,1-trimethyl-4-(2-{[(3S)-piperidin-3-yl]amino}-5-(trifluoromethyl)py-rimidin-4-yl)-1H-pyrrole-2-carboxamide] | 5 to 50 nM | 1 to 5 ×10⁻⁶ cm/s | > 200 nM | 100 to 1000 nM | > 1000 nM | 50 to 200 nM | > 2000 nM
O=c1c2[nH]cc(-c3nc(N[C@H]4CCCNC4)ncc3C(F)(F)F)c2ccn1-c1nccs1 [CDK7_1058, 3-(2-{[(3S)-piperidin-3-yl]amino}-5-(trifluoromethyl)py-rimidin-4-yl)-6-(1,3-thiazol-2-yl)-1H,6H,7H-pyrrolo[2,3-c]pyridin-7-one] | < 5 nM | 1 to 5 ×10⁻⁶ cm/s | > 200 nM | < 10 nM | < 10 nM | 5 to 50 nM | 500 to 2000 nM
Cc1nc(-c2cc(-c3nc(N[C@H]4CCCNC4)ncc3C(F)(F)F)c[nH]2)no1 [CDK7_1060, 4-[5-(5-methyl-1,2,4-oxadiazol-3-yl)-1H-pyrrol-3-yl]-N-[(3S)-piperidin-3-yl]-5-(trifluoromethyl)py-rimidin-2-amine] | < 5 nM | 5 to 10 ×10⁻⁶ cm/s | > 200 nM | 10 to 100 nM | 10 to 100 nM | 5 to 50 nM | 100 to 500 nM
FC(F)(F)c1cnc(N[C@H]2CCCNC2)nc1-c1c[nH]c(-c2ccccn2)c1 [CDK7_1061, N-[(3S)-piperidin-3-yl]-4-[5-(pyridin-2-yl)-1H-pyrrol-3-yl]-5-(trifluoromethyl)py-rimidin-2-amine] | 5 to 50 nM | 1 to 5 ×10⁻⁶ cm/s |  | 10 to 100 nM | 10 to 100 nM | 5 to 50 nM | 500 to 2000 nM

The next lines start with results.

IC50 (CDK7/Cyclin H/MNAT1) | Papp at 20 h, 10 μmol [1] | IC50 (CDK2/Cyclin A) | IC50 [3] | IC50 [4] | IC50 (CDK9/Cyclin K) | SMILES | CC50 at 72 h [2]
< 5 nM | < 1 ×10⁻⁶ cm/s | > 200 nM | < 10 nM | < 10 nM | 5 to 50 nM | Cn1ccc2c(-c3nc(N[C@H]4CCCNC4)ncc3C(F)(F)F)c[nH]c2c1=O [CDK7_845, 6-methyl-3-(2-{[(3S)-piperidin-3-yl]amino}-5-(trifluoromethyl)pyrimidin-4-yl)-1H,6H,7H-pyrrolo[2,3-c]pyridin-7-one] | 100 to 500 nM
< 5 nM | < 1 ×10⁻⁶ cm/s | > 200 nM | < 10 nM | < 10 nM | 5 to 50 nM | CN1CC=Cc2c(-c3nc(N[C@H]4CCCNC4)ncc3C(F)(F)F)c[nH]c2C1=O [CDK7_929] | 100 to 500 nM
< 5 nM | < 1 ×10⁻⁶ cm/s | > 200 nM | 10 to 100 nM | 100 to 1000 nM | 5 to 50 nM | Cn1nnnc1-c1cc(-c2nc(N[C@H]3CCCNC3)ncc2C(F)(F)F)c[nH]1 [CDK7_999, 4-[5-(1-methyl-1H-1,2,3,4-tetrazol-5-yl)-1H-pyrrol-3-yl]-N-[(3S)-piperidin-3-yl]-5-(trifluoromethyl) pyrimidin-2-amine] | 500 to 2000 nM
5 to 50 nM | 1 to 5 ×10⁻⁶ cm/s | > 200 nM | 10 to 100 nM | 10 to 100 nM | 5 to 50 nM | FC(F)(F)c1cnc(N[C@H]2CCCNC2)nc1-c1c[nH]c(-c2nnnn2C2CC2)c1 [CDK7_1102] | 500 to 2000 nM
